Values joined by “and” are separate entries in the source; they are usually repeats but may differ in a detail not shown here. Equal values may be shown once. Read-outs that look alike come from different tables or passages of the source.
Experiments:
Human TOP2A = biological target: T1, Human TOP2A (Homo sapiens, UniProt P11388); assay: TOP2A DNA decatenation assay (kDNA, agarose gel); format: biochemical; settings: for IC50: decatenation dose response; for % Inhibition TOP2A (30 μM) / inhibition at 30 µM: decatenation, 30 μM fixed concentration; for TOP2A inhibition, result in words: decatenation screen at 30 μM; for inhibition at 30 µM: 1 h, read-out: % Inhibition TOP2A (30 μM)
T1 construct: purchased TopoGEN (Buena Vista, CO)
T1 sequence (P11388 whole entry): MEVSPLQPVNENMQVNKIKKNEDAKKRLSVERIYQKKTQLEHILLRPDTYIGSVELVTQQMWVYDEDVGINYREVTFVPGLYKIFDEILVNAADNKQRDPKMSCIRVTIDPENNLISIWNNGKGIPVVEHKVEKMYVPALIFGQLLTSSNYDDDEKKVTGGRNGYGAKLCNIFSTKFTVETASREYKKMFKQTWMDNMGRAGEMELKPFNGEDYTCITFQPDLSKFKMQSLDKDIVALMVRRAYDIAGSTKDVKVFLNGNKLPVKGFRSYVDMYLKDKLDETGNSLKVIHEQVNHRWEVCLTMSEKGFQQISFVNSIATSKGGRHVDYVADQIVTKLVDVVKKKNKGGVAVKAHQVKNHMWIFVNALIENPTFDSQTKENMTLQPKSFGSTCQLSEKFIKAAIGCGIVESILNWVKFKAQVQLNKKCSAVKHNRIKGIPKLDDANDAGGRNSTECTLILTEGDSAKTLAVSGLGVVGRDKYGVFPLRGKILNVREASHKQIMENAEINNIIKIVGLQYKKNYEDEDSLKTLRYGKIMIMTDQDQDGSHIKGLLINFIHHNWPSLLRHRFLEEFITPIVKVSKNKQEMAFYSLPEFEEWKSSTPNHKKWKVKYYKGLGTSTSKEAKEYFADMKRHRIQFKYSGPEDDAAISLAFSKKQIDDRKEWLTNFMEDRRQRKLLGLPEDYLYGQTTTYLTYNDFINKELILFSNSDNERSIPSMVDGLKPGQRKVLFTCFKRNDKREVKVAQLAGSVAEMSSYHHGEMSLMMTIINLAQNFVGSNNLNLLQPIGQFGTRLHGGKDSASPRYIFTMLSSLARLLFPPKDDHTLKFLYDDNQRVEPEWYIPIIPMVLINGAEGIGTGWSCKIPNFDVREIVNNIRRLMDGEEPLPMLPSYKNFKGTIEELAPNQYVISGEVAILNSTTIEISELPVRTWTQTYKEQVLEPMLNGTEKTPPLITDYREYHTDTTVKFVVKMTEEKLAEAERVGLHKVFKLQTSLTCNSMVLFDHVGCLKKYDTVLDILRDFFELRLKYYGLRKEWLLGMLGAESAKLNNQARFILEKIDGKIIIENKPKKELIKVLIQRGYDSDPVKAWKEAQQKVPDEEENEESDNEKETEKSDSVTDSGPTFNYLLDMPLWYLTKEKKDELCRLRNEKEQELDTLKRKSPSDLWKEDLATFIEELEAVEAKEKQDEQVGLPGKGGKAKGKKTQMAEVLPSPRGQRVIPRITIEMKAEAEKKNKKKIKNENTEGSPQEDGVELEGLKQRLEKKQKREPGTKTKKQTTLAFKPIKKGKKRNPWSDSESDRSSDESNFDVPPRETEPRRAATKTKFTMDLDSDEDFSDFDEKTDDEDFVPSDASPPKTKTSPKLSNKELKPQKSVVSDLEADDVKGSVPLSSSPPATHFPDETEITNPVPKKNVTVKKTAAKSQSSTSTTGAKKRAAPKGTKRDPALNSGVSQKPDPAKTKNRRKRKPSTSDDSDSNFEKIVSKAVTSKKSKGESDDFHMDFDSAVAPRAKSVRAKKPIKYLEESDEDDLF
Method: Inhibition of TOP2A activity. Human TOP2A, kDNA, and assay buffers were obtained from TopoGEN (Buena Vista, CO). The synthesized compounds were screened for their TOP2A inhibitory activity by the intensity of DNA decatenation bands on a DNA gel when compared to the vehicle. Compounds were initially incubated with TOP2A (3 U/reaction) for 20 min at a 30 μM and 1.2% DMSO concentration in a 37° C. incubator without CO2.
The decatenation reaction was initiated immediately after by adding 2 mM ATP and 35 ng/reaction of kDNA, then incubated for 1 hour in a 37° C. water bath. The samples were loaded into a 0.8% agarose gel in 1× Tris-Borate-EDTA (TBE) at a 0.2 μg/mL ethidium bromide concentration and allowed to run in an electrophoretic chamber for 1 hour at 100V. Compounds with the highest inhibitory activity were selected for 2-fold serial dilution dose-response assays (58.6 nM-30 μM). The dose-response assays followed the same protocol with the exception of 4 U/reaction of TOP2A.
Inhibition studies of TOP2A and observed structure activity relationships (SAR). DNA catenation/decatenation or linking/unlinking of DNA is one of the main TOP2A functions essential for regulating DNA topology, and this is ATP dependent. […] Thus, as a starting point, the synthesized analogs were screened against TOP2A-dependent decatenation using 30 μM fixed concentrations, and the DNA from reactions were resolved on 0.8% agarose gels containing ethidium bromide.
Moreover, these studies provided interesting SAR, which shed light on the potential lead drug target binding interactions and affinity, biological activity, and future drug design optimization with this unique class of TOP2A inhibitors.
(§1) TOP2A decatenation assay. Human TOP2A, kDNA, and assay buffers were obtained from TopoGEN (Buena Vista, CO). The synthesized compounds were screened for their TOP2A inhibitory activity by the intensity of DNA decatenation bands on a DNA gel when compared to the vehicle. Compounds were initially incubated with TOP2A (3 U/reaction) for 20 min at a 30 μM and 1.2% DMSO concentration in a 37° C. incubator without CO2. The decatenation reaction was initiated immediately after by adding 2 mM ATP and 35 ng/reaction of kDNA, then incubated for 1 h in a 37° C. water bath. The samples were loaded into a 0.8% agarose gel in 1× Tris-Borate-EDTA (TBE) at a 0.2 μg/mL ethidium bromide concentration and allowed to run in an electrophoretic chamber for 1 h at 100V. Compounds with the highest inhibitory activity were selected for 2-fold serial dilution dose-response assays (58.6 nM-30 μM). The dose-response assays followed the same protocol with the exception of 4 U/reaction of TOP2A,
as §1, with “assays (53.6” for “assays (58.6”, “of TOP2A.” for “of TOP2A,”

SW620 tumor organoids = assay: Tumor organoid cytotoxicity / 3D cell viability (CellTox Green); format: cell-based
Method: Tumor organoid cytotoxicity. Fluorescence image-based method: The CellTox™ Green assay (Promega, Madison, WI, USA) was used with 3D tumor organoid to measure spheroid death. 0.1% CellTox™ Green was included in each well at the time of analogs dosing. 10% lysis solution was used as a cell death control. Fluorescence was measured at various time points with 465-510 nm excitation and 520-530 nm emission. Luminescence plate reader method: A 1:1 ratio of CellTiter-Glo™ 3D reagent (Promega) was added to 3D tumor organoid and the plate was shaken at 400 rpm for 30 min before luminescence was read with a PerkinElmer Envision plate reader.
Finally, SW620 tumor organoid cytotoxicity experiments were conducted using the CellTox Green assay, a fluorescence image-based method, to determine whether the inhibition of TCF transcription and effects on EMT are not the result of cytotoxicity. […] All of the analogs tested display IC50 dose response >30 μM and were higher compared to the IC50 values obtained during the downregulation of TCF transcription activity, and the EC50 values obtained for EMT modulation. Thus, the biological effects on TCF-transcription and EMT are not a result of tumor organoid cell death.
(§2) Tumor organoid cytotoxicity. SW620 tumor organoids were grown as previously outlined. CellTox™ Green-Express Cytotoxicity Assay (Promega, WI) solution was prepared per manufacturer's protocol. Briefly, organoids were treated for 72 h with CellTox™ Green Express (0.5×) reagent and various doses of TOP2A inhibitors over a range of 0-to-40 μM. Organoids were then imaged using the Opera Phenix HCS system (PerkinElmer, MA). CellTox™ Green Express was excited at 488 nm and emission was detected at 500-550 nm. Mean intensity of the whole well was utilized for calculating cytotoxicity with Lysis Buffer (Promega, WI, 0.025×) as the 0% viability control and 0.4% DMSO as the 100% viability control. Intensity values were normalized to these controls using GraphPad Prism 7.0 (GraphPad, CA).
as §2, with “CellTox™-Green-Express” for “CellTox™ Green-Express”, “(GraphPad.” for “(GraphPad,”

[1] = system: vimentin promoter activity (VimPro-GFP) in SW620 cells; assay: VimPro-GFP EMT reporter assay
Method: VimPro-GFP and EcadPro-mCherry reporter assays. VimPiro-GFP: SW620 cells were first transduced with NucLight Red virus (Essen BioSciences) and selected with Zeocin at 200 μg/mL, and then transduced with pCDH-VimPro-GFP-EF1-puro virus and selected with puromycin at 4 μg/mL. The dual fluorescently labeled cells were plated and treated in 3D tumor organoid as described. Tumor organoid images were recorded every 2 hours over a 72 hours period using an incucyte ZOOM content imaging system (Essen BioSciences) or PerkinElmer Phenix imager (PerkinElmer).
Analogs were also assessed for their ability to modulate or reverse EMT using VimPro-GFP and EcadPro-RFP SW620 reporter cells cultured as tumor organoids, determining EC50 dose responses over 72 hours (Table 2).
VimPro-GFP and EcadPro-RFP reporter assays. Stable VimPro-GFP or EcadPro-RFP SW620 reporter cells were generated using pCDH-VimPro-GFP-EF1-puro virus or pCDH-EcadPro-mCherry-EF1-puro virus as previously reported. […] Transduced cells were selected with puromycin at 2 μg/mL. The stable fluorescent labeled reporter cells were then used to generate tumor organoids as described. Tumor organoids were then treated with TOP2A inhibitors at 10 μM for an additional 72 h. Following treatment, tumor organoids were stained with 16 μM of Hoechst 33342 for 1 h, which functions as a nuclear stain for imaging segmentation. Images were taken with a 5× air objective. Z stacks were set at 20 μm apart for a total of 7 layers. Imaging analysis was performed using an Opera Phenix high content screening (HCS) system and Harmony high-content imaging and analysis software interface (PerkinElmer, MA). Nuclei were identified with Hoechst 33342 stain within each layer, and cells were found with either GFP or mCherry channel. The intensities of each fluorescence channel within the cells were calculated and thresholds were set based on the background intensities. Percentages of GFP or mCherry positive cells were calculated and normalized to the DMSO treated group.
VimPro-GFP and EcadPro-RFP reporter assays. Stable VimPro-GFP or EcadPro-RFP SW620 reporter cells were generated using pCDH-VimPro-GFP-EF1-puro virus or pCDH-EcadPro-mCherry-EF1-puro virus as previously reported. […] Transduced cells were selected with puromycin at 2 μg/mL. The stable fluorescent labeled reporter cells were then used to generate tumor organoids as described. Tumor organoids were then treated with TOP2A inhibitors at 10 μM for an additional 72 h. Following treatment, tumor organoids were stained with 16 μM of Hoechst 33342 for 1 h, which functions as a nuclear stain for imaging segmentation. Images were taken with a 5× air objective.

[2] = Table 1, read-out: % Inhibition TOP2A (IC50 Values)
[3] = read-out: % Vimentin downregulation EC50, Table 2, SW620 tumor organoids, 72 hours
[4] = read-out: IC50 TOP2A inhibition
[5] = Homo sapiens, SW-620, Table 2, 72 hours
[6] = Homo sapiens, SW-620, 72 h, read-out: % Vimentin downregulation EC50 (μM)

## CC(=O)Nc1ccc(-c2ccnc3c(O)c(NC(C)=O)ccc23)cc1 [Analog 35]
Human TOP2A; [2]
  IC50: 1.9 µM
Human TOP2A; Table 1
  % Inhibition TOP2A (30 μM): 97.0%
Human TOP2A
  TOP2A inhibition, result in words: restored inhibitory activity against TOP2A
SW620 tumor organoids; Table 2, 72 hours
  IC50: > 30 µM
[1]; [3]
  EC50: 9.5 µM

## CC(C)(C)C(=O)Nc1ccc2c(-c3ccccc3)ccnc2c1O [Analog 39]
Human TOP2A; [2]
  IC50: 1.3 µM
Human TOP2A; Table 1
  % Inhibition TOP2A (30 μM): 97.0%
Human TOP2A; [4]
  IC50: ~1 µM
SW620 tumor organoids; Table 2, 72 hours
  IC50: > 30 µM
[1]; [3]
  EC50: 4.7 µM

## CC(=O)Nc1ccc2c(-c3cc(F)ccc3O)ccnc2c1O [Analog 7]
Human TOP2A; Table 1
  inhibition at 30 µM: 99%
Human TOP2A; [4]
  IC50: 5.81 µM and 5.8 µM
Human TOP2A
  TOP2A inhibition, result in words: complete enzyme inhibition
SW620 tumor organoids; [5]
  IC50: > 30 µM
[1]; [6]
  EC50: 10.8 µM
[1]; SW620 tumor organoids
  vimentin downregulation (VimPro-GFP), in words: dose-dependent downregulation of vimentin

## Cn1ccc2c(c1=O)C(=O)c1nccc3c1C2NC1=CCC=CC13 (stereo not shown) [neo, neoamphimedine, reference compound]
Human TOP2A
  TOP2A inhibition, result in words: significantly inhibits TOP2A mediated DNA decatenation

## O=C(CCN1CCOCC1)Nc1ccc2c(-c3cc(F)ccc3O)ccnc2c1O [Analog 42]
Human TOP2A; Table 1
  inhibition at 30 µM: 90%
Human TOP2A; [4]
  IC50: 0.6 µM
SW620 tumor organoids; [5]
  IC50: > 30 µM
[1]; [6]
  EC50: 13.2 µM

## CC(=O)Nc1ccc2c(-c3ccoc3)ccnc2c1O [Analog 56]
Human TOP2A; Table 1
  inhibition at 30 µM: 86%
Human TOP2A; [2]
  IC50: 6.4 µM
SW620 tumor organoids; [5]
  IC50: > 30 µM
[1]; [6]
  EC50: 25.7 µM
